Experimental data taken from ChEMBL document CHEMBL1129164, “Molecular design, chemical synthesis and biological studies of novel enediynes related to dynemicin a” (Bioorg Med Chem Lett, 1996).
In brackets after ≈: the same amount, converted by molar mass.

What was measured:
Type in all cases: functional, cell-based
MOLT-4 = test: In vitro growth inhibition of Molt-4 (leukemia cell line) human tumor cells.
HepG2 = test: In vitro growth inhibition of Hep G2 ([…] line) human tumor cells.
COLO 205 = test: In vitro growth inhibition of COLO 205 (colon cell line) human tumor cells.
SK-BR-3 = test: In vitro growth inhibition of SK-BR-3 (breast cancer cell line) human tumor cells.

| Compound | IC50 (MOLT-4) [µg/mL] | IC50 (HepG2) [µg/mL] | IC50 (COLO 205) [µg/mL] | IC50 (SK-BR-3) [µg/mL] |
| --- | --- | --- | --- | --- |
| CCOC(=O)N1c2ccccc2[C@@H](S(=O)(=O)c2ccccc2)[C@H](O)C1C#Cc1ccccc1C#CCS(=O)(=O)c1ccccc1 (stereo partly drawn) | 0.73 (≈ 1.14 µM) | 3.75 (≈ 5.86 µM) | 5.33 (≈ 8.33 µM) | 6.26 (≈ 9.79 µM) |
| CCOC(=O)N1c2ccccc2C(=O)CC1C#Cc1ccccc1C#CCS(=O)(=O)c1ccccc1 (stereo not drawn) | 7.26 (≈ 14.6 µM) | 70 (≈ 141 µM) | 50.1 (≈ 101 µM) | 53.6 (≈ 108 µM) |
| C#CC1[C@H]2O[C@H]2c2ccccc2N1C(=O)OCC (stereo partly drawn) | 66.5 (≈ 274 µM) | > 100 | > 100 | > 100 |

Other lines, results leading:

| IC50 (MOLT-4) [µg/mL] | IC50 (HepG2) [µg/mL] | IC50 (COLO 205) [µg/mL] | IC50 (SK-BR-3) [µg/mL] | Compound |
| --- | --- | --- | --- | --- |
| 5.5 (≈ 12.3 µM) | 9.01 (≈ 20.1 µM) | 26 (≈ 58 µM) | 19.5 (≈ 43.5 µM) | CCOC(=O)N1c2ccccc2[C@@H]2O[C@@H]2C1C#C/C=C\C#CCS(=O)(=O)c1ccccc1 (stereo partly drawn) |
| 4.64 (≈ 9.33 µM) | 8.91 (≈ 17.9 µM) | 9.59 (≈ 19.3 µM) | 9.23 (≈ 18.6 µM) | CCOC(=O)N1c2ccccc2[C@@H]2O[C@@H]2C1C#Cc1ccccc1C#CCS(=O)(=O)c1ccccc1 (stereo partly drawn) |
| 10.2 (≈ 21.9 µM) | 57.8 (≈ 124 µM) | 49.7 (≈ 107 µM) | 46.7 (≈ 100 µM) | CCOC(=O)N1c2ccccc2[C@@H](O)[C@H](O)C1C#C/C=C\C#CCS(=O)(=O)c1ccccc1 (stereo partly drawn) |
| 5.63 (≈ 12.6 µM) | 50.2 (≈ 112 µM) | 53 (≈ 119 µM) | 43.9 (≈ 98 µM) | CCOC(=O)N1c2ccccc2C(=O)CC1C#C/C=C\C#CCS(=O)(=O)c1ccccc1 (stereo not drawn) |
